# Assays:
# [1] = biological target: Protein cereblon/Signal transducer and activator of transcription 3 (Homo sapiens, UniProt P40763+Q96SW2); experiment: Protac activity at E3 ubiquitin ligase/STAT3 in human MOLM-16 cells assessed as degradation of STAT3 incubated for 4 hrs by fluorescent immunoblotting analysis; type: cell-based
# [2] = biological target: Protein cereblon/Signal transducer and activator of transcription 1-alpha/beta (Homo sapiens, UniProt P42224+Q96SW2); experiment: Protac activity at E3 ubiquitin ligase/STAT1 in human MOLM-16 cells assessed as degradation of STAT1 incubated for 4 hrs by fluorescent immunoblotting analysis; type: cell-based
# Protein cereblon/Signal transducer and activator of transcription 1-alpha/beta, sequence (P42224 whole entry): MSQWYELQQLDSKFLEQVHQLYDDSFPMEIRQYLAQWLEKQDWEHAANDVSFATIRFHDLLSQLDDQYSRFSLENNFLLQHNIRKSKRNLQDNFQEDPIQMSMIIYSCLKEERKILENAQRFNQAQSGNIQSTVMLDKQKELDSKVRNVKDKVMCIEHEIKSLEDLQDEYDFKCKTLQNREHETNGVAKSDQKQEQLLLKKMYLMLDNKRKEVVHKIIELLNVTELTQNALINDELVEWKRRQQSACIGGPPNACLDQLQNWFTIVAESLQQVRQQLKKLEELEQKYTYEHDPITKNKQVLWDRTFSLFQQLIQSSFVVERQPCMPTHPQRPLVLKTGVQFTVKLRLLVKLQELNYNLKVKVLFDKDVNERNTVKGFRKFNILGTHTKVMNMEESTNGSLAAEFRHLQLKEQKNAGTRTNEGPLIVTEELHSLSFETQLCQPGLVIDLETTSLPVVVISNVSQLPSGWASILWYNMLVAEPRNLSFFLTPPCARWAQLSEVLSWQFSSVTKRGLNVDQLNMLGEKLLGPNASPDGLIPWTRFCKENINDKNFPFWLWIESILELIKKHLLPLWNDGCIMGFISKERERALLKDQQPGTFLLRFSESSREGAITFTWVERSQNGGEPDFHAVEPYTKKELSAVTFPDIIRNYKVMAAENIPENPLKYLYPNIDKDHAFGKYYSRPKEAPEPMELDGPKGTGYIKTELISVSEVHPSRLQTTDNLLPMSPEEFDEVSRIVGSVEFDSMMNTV
# Protein cereblon/Signal transducer and activator of transcription 1-alpha/beta, sequence (Q96SW2 whole entry): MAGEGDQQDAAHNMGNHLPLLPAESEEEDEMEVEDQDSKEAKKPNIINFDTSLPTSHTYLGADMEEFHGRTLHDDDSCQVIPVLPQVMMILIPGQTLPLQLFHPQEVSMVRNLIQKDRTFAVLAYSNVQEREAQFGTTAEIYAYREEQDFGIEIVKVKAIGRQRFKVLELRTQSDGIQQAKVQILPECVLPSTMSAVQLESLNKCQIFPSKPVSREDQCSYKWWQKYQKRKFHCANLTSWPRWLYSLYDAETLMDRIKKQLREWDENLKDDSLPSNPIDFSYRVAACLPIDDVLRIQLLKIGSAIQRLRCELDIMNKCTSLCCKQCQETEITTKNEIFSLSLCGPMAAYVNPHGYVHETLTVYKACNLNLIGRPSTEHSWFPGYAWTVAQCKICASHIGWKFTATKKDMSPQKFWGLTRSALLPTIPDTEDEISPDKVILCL
# Protein cereblon/Signal transducer and activator of transcription 3, sequence (P40763 whole entry): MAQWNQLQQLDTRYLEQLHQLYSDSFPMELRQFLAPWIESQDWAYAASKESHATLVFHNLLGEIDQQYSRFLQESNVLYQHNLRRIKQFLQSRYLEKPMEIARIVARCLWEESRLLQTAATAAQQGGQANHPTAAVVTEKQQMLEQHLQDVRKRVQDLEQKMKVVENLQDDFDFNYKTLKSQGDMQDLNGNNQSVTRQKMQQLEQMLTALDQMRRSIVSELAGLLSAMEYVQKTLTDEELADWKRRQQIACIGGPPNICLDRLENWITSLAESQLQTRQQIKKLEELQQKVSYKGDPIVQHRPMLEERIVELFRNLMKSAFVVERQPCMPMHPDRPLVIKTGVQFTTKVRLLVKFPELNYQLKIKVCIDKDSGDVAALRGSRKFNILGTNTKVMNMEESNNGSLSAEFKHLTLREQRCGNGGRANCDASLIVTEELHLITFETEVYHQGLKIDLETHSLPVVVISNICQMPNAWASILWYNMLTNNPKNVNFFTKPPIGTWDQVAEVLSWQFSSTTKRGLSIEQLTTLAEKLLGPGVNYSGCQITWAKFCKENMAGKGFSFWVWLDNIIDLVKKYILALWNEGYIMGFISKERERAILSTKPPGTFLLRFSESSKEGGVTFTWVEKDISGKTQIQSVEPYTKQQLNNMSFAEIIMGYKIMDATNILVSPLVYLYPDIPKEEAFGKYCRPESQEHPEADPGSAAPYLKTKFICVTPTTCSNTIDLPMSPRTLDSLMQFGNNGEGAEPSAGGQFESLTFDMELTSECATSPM
# Protein cereblon/Signal transducer and activator of transcription 3, sequence (Q96SW2 whole entry): as the sequence (Q96SW2 whole entry) above
Structure (SMILES),DC50 [1],DC50 [2]
CC(C)(C)c1ccc(C[C@H](NC(=O)[C@H](CCC(N)=O)NC(=O)[C@@H]2CC[C@@H]3CCN(CC(F)F)C[C@H](NC(=O)c4cc5cc(C(F)(F)P(=O)(O)O)ccc5s4)C(=O)N32)C(=O)N2CCC(CCC#Cc3cccc4c3CN(C3CCC(=O)NC3=O)C4=O)CC2)cc1 (some centres not stated),< 250 nM,< 250 nM
CCN1CC[C@H]2CC[C@@H](C(=O)N[C@@H](CCC(N)=O)C(=O)N[C@@H](Cc3ccc(NS(=O)(=O)c4ccc(C)cc4)cc3)C(=O)N3CCC(CCC#Cc4cccc5c4CN(C4CCC(=O)NC4=O)C5=O)CC3)N2C(=O)[C@@H](NC(=O)c2cc3cc(C(F)(F)P(=O)(O)O)ccc3s2)C1 (some centres not stated),< 250 nM,250 nM
CCN1CC[C@H]2CC[C@@H](C(=O)N[C@@H](CCC(N)=O)C(=O)N[C@@H](Cc3ccc(S(=O)(=O)c4ccccc4)cc3)C(=O)N3CCC(CCC#Cc4cccc5c4CN(C4CCC(=O)NC4=O)C5=O)CC3)N2C(=O)[C@@H](NC(=O)c2cc3cc(C(F)(F)P(=O)(O)O)ccc3s2)C1 (some centres not stated),< 250 nM,250 nM
COC(=O)N1CC[C@H]2CC[C@@H](C(=O)N[C@@H](CCC(N)=O)C(=O)N[C@@H](Cc3ccc(C(C)(C)C)cc3)C(=O)N3CCC(CCC#Cc4cccc5c4CN(C4CCC(=O)NC4=O)C5=O)CC3)N2C(=O)[C@@H](NC(=O)c2cc3cc(C(F)(F)P(=O)(O)O)ccc3s2)C1 (some centres not stated),< 250 nM,250 nM
CCN1CC[C@H]2CC[C@@H](C(=O)N[C@@H](CCC(N)=O)C(=O)N[C@@H](Cc3ccc(S(=O)(=O)C4CC4)cc3)C(=O)N3CCC(CCC#Cc4cccc5c4CN(C4CCC(=O)NC4=O)C5=O)CC3)N2C(=O)[C@@H](NC(=O)c2cc3cc(C(F)(F)P(=O)(O)O)ccc3s2)C1 (some centres not stated),< 250 nM,500 nM
CCN1CC[C@H]2CC[C@@H](C(=O)N[C@@H](CNC(N)=O)C(=O)N[C@@H](Cc3ccc(C(C)(C)C)cc3)C(=O)N3CCC(CCC#Cc4cccc5c4CN(C4CCC(=O)NC4=O)C5=O)CC3)N2C(=O)[C@@H](NC(=O)c2cc3cc(C(F)(F)P(=O)(O)O)ccc3s2)C1 (some centres not stated),< 250 nM,> 1000 nM
